According to ChEMBL document CHEMBL4673260, “Pyridine alkaloids with activity in the central nervous system” (Bioorg Med Chem, 2020):

Assays:
[1] = biological target: T1, Neuronal acetylcholine receptor; alpha4/beta2 (Rattus norvegicus, UniProt P09483+P12390); experiment: Displacement of [3H]epibatidine from alpha4beta2 nAChR in rat frontal cortex membrane by scintillation counting method; type: cell membranes
Homo sapiens [2] = species: Homo sapiens; experiment: Inhibition of human protein kinase A at 10 uM relative to control
[3] = biological target: Protein kinase C alpha type (Homo sapiens) (UniProt P17252); experiment: Inhibition of human protein kinase Ca at 10 uM relative to control
Homo sapiens [4] = species: Homo sapiens; experiment: Inhibition of human PDE3A1A at 10 uM relative to control
Acetylcholinesterase = Acetylcholinesterase (Homo sapiens, UniProt P22303); experiment: Inhibition of acetylcholinesterase (unknown origin) at 10 uM relative to control
[5] = biological target: Substance-P receptor (Homo sapiens) (UniProt P25103); experiment: Inhibition of human NK1 at 10 uM relative to control
Substance-P receptor (Homo sapiens), sequence (P25103 whole entry): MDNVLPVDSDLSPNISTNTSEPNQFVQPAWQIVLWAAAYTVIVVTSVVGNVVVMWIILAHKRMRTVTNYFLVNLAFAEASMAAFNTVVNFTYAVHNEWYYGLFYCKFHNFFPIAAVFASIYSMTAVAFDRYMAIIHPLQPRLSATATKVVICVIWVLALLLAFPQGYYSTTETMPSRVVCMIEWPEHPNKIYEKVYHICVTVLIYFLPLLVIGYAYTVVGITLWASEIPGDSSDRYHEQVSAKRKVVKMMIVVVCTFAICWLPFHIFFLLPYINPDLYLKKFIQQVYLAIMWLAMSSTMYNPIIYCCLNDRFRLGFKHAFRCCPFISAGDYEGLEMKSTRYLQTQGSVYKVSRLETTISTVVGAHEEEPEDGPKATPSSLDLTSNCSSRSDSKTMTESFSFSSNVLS

[6] = biological target: Type-1 angiotensin II receptor (Homo sapiens) (UniProt P30556); experiment: Inhibition of human AT1 receptor expressed in CHO-K1 cells at 10 uM relative to control; type: cell-based
[7] = biological target: Thromboxane A2 receptor (Homo sapiens) (UniProt P21731); experiment: Inhibition of human Thromboxane A2 at 10 uM relative to control
Thromboxane A2 receptor (Homo sapiens), sequence (P21731 whole entry): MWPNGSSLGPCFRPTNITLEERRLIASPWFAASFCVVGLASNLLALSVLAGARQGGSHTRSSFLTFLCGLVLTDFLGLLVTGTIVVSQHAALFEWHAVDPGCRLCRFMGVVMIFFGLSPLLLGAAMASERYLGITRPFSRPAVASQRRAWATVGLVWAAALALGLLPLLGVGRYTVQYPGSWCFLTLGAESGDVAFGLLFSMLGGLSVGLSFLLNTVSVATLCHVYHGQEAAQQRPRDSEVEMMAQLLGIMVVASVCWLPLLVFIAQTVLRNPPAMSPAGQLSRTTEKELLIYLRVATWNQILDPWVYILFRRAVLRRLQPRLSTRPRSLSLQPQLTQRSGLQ

[8] = biological target: Cysteinyl leukotriene receptor 1 (Homo sapiens) (UniProt Q9Y271); experiment: Inhibition of human CYSLTR1 expressed in CHO-K1 cells at 10 uM relative to control; type: cell-based
Homo sapiens [9] = species: Homo sapiens; experiment: Inhibition of NOS (unknown origin) at 10 uM relative to control
Homo sapiens [10] = species: Homo sapiens; experiment: Inhibition of sodium channel site2 (unknown origin) at 10 uM relative to control
Homo sapiens [11] = species: Homo sapiens; experiment: Inhibition of Calcium-activated potassium channel channel (unknown origin); details: concentration not given here
L-type calcium channel = L-type calcium channel (Homo sapiens, UniProt O60840+Q01668+Q13698+Q13936); experiment: Inhibition of L-type calcium channel (unknown origin) at 10 uM relative to control; type: protein assay
Homo sapiens [12] = species: Homo sapiens; experiment: Inhibition of N-type calcium channel (unknown origin) at 10 uM relative to control
[13] = biological target: Sigma intracellular receptor 2 (Homo sapiens) (UniProt Q5BJF2); experiment: Inhibition of sigma 2 receptor (unknown origin) at 10 uM relative to control
Sigma intracellular receptor 2 (Homo sapiens), sequence (Q5BJF2 whole entry): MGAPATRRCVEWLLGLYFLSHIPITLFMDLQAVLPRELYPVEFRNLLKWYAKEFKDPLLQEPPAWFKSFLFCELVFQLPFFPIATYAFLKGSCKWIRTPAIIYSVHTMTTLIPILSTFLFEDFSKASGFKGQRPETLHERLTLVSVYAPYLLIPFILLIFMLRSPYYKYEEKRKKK

[14] = biological target: Sigma non-opioid intracellular receptor 1 (Homo sapiens) (UniProt Q99720); experiment: Inhibition of sigma 1 receptor (unknown origin) at 10 uM relative to control
[15] = biological target: 5-hydroxytryptamine receptor 7 (Homo sapiens) (UniProt P34969); experiment: Inhibition of human 5HT-7 receptor at 10 uM relative to control
5-hydroxytryptamine receptor 7 (Homo sapiens), sequence (P34969 whole entry): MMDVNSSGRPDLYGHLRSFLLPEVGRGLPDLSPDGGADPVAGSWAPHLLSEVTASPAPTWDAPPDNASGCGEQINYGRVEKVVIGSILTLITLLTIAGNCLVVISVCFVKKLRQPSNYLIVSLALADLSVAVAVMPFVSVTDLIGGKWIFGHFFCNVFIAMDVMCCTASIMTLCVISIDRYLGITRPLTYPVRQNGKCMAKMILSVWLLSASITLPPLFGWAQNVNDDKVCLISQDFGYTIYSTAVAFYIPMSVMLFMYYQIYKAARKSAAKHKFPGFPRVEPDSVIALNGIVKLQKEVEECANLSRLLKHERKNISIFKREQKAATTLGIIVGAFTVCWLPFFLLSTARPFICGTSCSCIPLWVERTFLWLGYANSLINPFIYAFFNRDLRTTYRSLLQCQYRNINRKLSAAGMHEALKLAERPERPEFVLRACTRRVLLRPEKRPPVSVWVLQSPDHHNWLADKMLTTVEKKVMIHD

Homo sapiens [16] = species: Homo sapiens; experiment: Inhibition of human 5HT-6 receptor at 10 uM relative to control
[17] = biological target: 5-hydroxytryptamine receptor 4 (Homo sapiens) (UniProt Q13639); experiment: Inhibition of 5HT-4 (unknown origin) receptor at 10 uM relative to control
[18] = biological target: 5-hydroxytryptamine receptor 2A (Homo sapiens, UniProt P28223); experiment: Inhibition of human 5HT-2A receptor at 10 uM relative to control
5-hydroxytryptamine receptor 2A, sequence (P28223 whole entry): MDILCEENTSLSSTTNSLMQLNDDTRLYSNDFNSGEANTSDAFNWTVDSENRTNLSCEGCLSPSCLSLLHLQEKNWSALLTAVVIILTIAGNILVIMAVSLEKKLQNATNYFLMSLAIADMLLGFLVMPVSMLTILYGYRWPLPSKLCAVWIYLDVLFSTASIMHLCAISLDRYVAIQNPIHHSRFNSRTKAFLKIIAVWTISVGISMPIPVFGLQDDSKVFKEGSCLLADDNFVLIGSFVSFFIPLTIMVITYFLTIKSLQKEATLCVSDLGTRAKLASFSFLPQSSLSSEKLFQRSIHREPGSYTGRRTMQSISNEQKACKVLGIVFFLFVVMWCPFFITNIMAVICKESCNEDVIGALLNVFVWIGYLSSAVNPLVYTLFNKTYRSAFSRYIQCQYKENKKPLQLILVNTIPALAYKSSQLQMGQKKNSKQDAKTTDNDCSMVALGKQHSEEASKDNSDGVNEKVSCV

[19] = biological target: 5-hydroxytryptamine receptor 2C (Homo sapiens) (UniProt P28335); experiment: Inhibition of human 5HT-2C receptor at 10 uM relative to control
[20] = biological target: 5-hydroxytryptamine receptor 1D (Homo sapiens) (UniProt P28221); experiment: Inhibition of 5HT-1D receptor (unknown origin) at 10 uM relative to control
5-hydroxytryptamine receptor 1D (Homo sapiens), sequence (P28221 whole entry): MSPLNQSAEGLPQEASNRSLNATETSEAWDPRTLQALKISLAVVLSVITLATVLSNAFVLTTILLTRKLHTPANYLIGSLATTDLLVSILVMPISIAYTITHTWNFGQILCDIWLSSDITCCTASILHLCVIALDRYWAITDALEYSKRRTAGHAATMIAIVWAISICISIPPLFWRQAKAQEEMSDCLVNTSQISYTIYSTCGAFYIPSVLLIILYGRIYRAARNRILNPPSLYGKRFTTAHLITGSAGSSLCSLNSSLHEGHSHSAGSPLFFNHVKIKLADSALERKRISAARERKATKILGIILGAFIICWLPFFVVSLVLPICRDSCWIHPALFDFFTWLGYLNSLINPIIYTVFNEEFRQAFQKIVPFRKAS

[21] = biological target: 5-hydroxytryptamine receptor 1A (Homo sapiens) (UniProt P08908); experiment: Inhibition of human 5HT-1a receptor at 10 uM relative to control
[22] = biological target: Sodium-dependent serotonin transporter (Homo sapiens) (UniProt P31645); experiment: Inhibition of human serotonin transporter expressed in HEK293 cells at 10 uM relative to control; type: cell-based
[23] = biological target: Muscarinic acetylcholine receptor M4 (Homo sapiens) (UniProt P08173); experiment: Inhibition of human muscarinic M4 receptor expressed in CHO-K1 cells at 10 uM relative to control; type: cell-based
[24] = biological target: Muscarinic acetylcholine receptor M2 (Homo sapiens) (UniProt P08172); experiment: Inhibition of human muscarinic M2 receptor expressed in CHO-K1 cells at 10 uM relative to control; type: cell-based
Muscarinic acetylcholine receptor M2 (Homo sapiens), sequence (P08172 whole entry): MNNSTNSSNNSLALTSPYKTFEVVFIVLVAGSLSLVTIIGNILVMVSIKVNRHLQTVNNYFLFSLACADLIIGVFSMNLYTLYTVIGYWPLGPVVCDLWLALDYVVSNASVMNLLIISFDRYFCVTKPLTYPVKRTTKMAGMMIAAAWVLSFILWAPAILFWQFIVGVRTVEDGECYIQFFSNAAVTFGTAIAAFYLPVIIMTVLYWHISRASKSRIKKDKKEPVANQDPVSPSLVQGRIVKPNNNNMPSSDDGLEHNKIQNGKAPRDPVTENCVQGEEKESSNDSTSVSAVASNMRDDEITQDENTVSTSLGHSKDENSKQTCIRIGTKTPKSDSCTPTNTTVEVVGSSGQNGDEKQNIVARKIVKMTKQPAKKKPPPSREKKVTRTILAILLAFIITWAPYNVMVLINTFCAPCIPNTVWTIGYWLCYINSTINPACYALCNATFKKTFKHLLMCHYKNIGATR

[25] = biological target: Muscarinic acetylcholine receptor M3 (Homo sapiens, UniProt P20309); experiment: Inhibition of human muscarinic M3 receptor expressed in CHO-K1 cells at 10 uM relative to control; type: cell-based
[26] = biological target: Histamine H2 receptor (Homo sapiens) (UniProt P25021); experiment: Inhibition of human histamine H2 receptor expressed in CHO-K1 cells at 10 uM relative to control; type: cell-based
[27] = biological target: Histamine H1 receptor (Homo sapiens) (UniProt P35367); experiment: Inhibition of human histamine H1 receptor expressed in CHO-K1 cells at 10 uM relative to control; type: cell-based
Histamine H1 receptor (Homo sapiens), sequence (P35367 whole entry): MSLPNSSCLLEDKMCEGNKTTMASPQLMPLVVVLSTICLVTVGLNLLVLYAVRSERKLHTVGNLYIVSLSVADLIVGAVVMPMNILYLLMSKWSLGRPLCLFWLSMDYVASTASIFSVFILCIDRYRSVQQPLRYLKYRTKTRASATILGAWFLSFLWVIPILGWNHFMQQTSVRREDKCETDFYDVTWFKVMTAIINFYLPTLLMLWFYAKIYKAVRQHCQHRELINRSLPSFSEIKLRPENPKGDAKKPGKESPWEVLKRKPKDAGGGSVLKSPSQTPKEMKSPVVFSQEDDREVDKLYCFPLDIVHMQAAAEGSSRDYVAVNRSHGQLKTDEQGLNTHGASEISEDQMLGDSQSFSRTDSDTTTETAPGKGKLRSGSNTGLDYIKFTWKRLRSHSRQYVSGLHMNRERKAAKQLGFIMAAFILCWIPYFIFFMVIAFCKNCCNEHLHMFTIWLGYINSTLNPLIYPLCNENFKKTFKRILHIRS

Homo sapiens [28] = species: Homo sapiens; experiment: Inhibition of Glutamate receptor ionotropic NMDA glycine,strychnine-sensitive site (unknown origin) at 10 uM relative to control
Homo sapiens [29] = species: Homo sapiens; experiment: Inhibition of Glutamate receptor ionotropic NMDA phencyclidine site (unknown origin) at 10 uM relative to control
Homo sapiens [30] = species: Homo sapiens; experiment: Inhibition of Glutamate receptor ionotropic NMDA agonist site (unknown origin) at 10 uM relative to control
Homo sapiens [31] = species: Homo sapiens; experiment: Inhibition of Glutamate receptor ionotropic kainate site (unknown origin) at 10 uM relative to control
Homo sapiens [32] = species: Homo sapiens; experiment: Inhibition of Glutamate receptor ionotropic AMPA site (unknown origin) at 10 uM relative to control
[33] = biological target: Gamma-aminobutyric acid receptor subunit alpha-1 (Homo sapiens) (UniProt P14867); experiment: Inhibition of GABA-A alpha1 BDZ site (unknown origin) at 10 uM relative to control
[34] = biological target: D(4) dopamine receptor (Homo sapiens) (UniProt P21917); experiment: Inhibition of human dopamine D4.4 receptor expressed in CHO-K1 cells at 10 uM relative to control; type: cell-based
[35] = biological target: Beta-2 adrenergic receptor (Homo sapiens) (UniProt P07550); experiment: Inhibition of human adrenergic receptor beta2 expressed in CHO-K1 cells at 10 uM relative to control; type: cell-based
[36] = biological target: Beta-1 adrenergic receptor (Homo sapiens) (UniProt P08588); experiment: Inhibition of human adrenergic receptor beta1 expressed in CHO-K1 cells at 10 uM relative to control; type: cell-based
[37] = biological target: Alpha-2B adrenergic receptor (Homo sapiens) (UniProt P18089); experiment: Inhibition of human adrenergic receptor alpha2B expressed in CHO-K1 cells at 10 uM relative to control; type: cell-based
[38] = biological target: Adenosine receptor A1 (Homo sapiens) (UniProt P30542); experiment: Inhibition of human adenosine receptor A1 expressed in CHO-K1 cells at 10 uM relative to control; type: cell-based
Homo sapiens [39] = species: Homo sapiens; experiment: Inhibition of human adenosine transporter at 10 uM relative to control
[40] = biological target: Alpha-1A adrenergic receptor (Homo sapiens) (UniProt P35348); experiment: Inhibition of human adrenergic receptor alpha1A expressed in CHO-K1 cells at 10 uM relative to control; type: cell-based
Alpha-1A adrenergic receptor (Homo sapiens), sequence (P35348 whole entry): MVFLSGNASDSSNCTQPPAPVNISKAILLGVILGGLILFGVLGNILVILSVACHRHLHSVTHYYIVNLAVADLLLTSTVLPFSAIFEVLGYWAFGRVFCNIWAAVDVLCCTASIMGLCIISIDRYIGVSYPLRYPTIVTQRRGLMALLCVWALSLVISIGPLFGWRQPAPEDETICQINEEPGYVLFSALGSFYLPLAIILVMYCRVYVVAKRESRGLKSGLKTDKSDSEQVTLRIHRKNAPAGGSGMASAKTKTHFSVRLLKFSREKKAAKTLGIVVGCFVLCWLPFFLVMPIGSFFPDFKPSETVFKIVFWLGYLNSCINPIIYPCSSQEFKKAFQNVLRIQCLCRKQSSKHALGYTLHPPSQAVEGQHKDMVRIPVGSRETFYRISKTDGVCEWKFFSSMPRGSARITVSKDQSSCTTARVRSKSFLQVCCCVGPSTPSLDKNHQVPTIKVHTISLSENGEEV

[41] = biological target: T1, Neuronal acetylcholine receptor; alpha4/beta2
Description: Agonist activity at alpha4beta2 nAChR in rat frontal cortex membrane

T1 sequence (P09483 whole entry): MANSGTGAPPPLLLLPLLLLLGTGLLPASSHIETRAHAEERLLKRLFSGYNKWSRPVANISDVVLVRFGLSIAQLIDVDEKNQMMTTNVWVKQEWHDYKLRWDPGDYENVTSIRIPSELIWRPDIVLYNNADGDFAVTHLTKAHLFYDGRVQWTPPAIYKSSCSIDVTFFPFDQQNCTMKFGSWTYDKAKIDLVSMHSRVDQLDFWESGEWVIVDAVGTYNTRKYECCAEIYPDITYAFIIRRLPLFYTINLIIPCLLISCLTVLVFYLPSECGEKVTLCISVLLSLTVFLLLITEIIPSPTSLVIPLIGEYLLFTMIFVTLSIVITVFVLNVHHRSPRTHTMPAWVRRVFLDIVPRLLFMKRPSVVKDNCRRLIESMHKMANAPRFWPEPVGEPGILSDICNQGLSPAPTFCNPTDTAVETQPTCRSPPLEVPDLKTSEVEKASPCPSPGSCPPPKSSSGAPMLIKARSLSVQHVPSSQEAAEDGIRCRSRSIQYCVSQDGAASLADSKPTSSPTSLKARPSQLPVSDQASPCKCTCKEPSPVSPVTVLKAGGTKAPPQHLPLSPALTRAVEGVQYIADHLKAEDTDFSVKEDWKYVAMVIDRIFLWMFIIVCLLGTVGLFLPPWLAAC
T1 sequence (P12390 whole entry): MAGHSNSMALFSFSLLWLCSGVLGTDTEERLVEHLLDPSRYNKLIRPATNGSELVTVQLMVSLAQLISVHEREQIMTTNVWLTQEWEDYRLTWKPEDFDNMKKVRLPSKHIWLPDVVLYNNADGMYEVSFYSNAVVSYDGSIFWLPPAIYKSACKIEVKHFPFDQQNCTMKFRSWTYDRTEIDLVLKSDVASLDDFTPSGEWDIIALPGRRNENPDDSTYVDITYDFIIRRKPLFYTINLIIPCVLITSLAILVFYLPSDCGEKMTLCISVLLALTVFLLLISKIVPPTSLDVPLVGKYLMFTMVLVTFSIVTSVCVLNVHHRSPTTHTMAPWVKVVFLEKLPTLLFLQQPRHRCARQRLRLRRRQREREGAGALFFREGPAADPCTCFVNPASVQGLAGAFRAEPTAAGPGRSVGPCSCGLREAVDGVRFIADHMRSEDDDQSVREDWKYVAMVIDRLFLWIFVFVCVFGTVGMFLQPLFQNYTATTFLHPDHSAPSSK

With `CN1C(=O)CC[C@H]1c1cccnc1` [COTININE] the Ki [1] was 3 µM, the inhibition (Homo sapiens [2]) was under 50% and the inhibition [3] was under 50%. For the same molecule, the inhibition (Homo sapiens [4]) was under 50%, the inhibition (Acetylcholinesterase) was under 50% and the inhibition [5] was under 50%. It also gave an inhibition [6] of under 50%, an inhibition [7] of under 50% and an inhibition [8] of under 50%. The inhibition (Homo sapiens [9]) was under 50%, the inhibition (Homo sapiens [10]) was under 50% and the inhibition (Homo sapiens [11]) was under 50%. For the same molecule, the inhibition at 10 µM (L-type calcium channel) was under 50%, the inhibition (Homo sapiens [12]) was under 50% and the inhibition [13] was under 50%. It also gave an inhibition [14] of under 50%, an inhibition [15] of under 50% and an inhibition (Homo sapiens [16]) of under 50%. The inhibition [17] was under 50%, the inhibition [18] was under 50% and the inhibition [19] was under 50%. For the same molecule, the inhibition [20] was under 50%, the inhibition [21] was under 50% and the inhibition [22] was under 50%. The inhibition [23] was under 50%, the inhibition [24] was under 50% and the inhibition [25] was under 50%. For the same molecule, the inhibition [26] was under 50%, the inhibition [27] was under 50% and the inhibition (Homo sapiens [28]) was under 50%. It also gave an inhibition (Homo sapiens [29]) of under 50%, an inhibition (Homo sapiens [30]) of under 50% and an inhibition (Homo sapiens [31]) of under 50%. It also gave an inhibition (Homo sapiens [32]) of under 50%, an inhibition [33] of under 50% and an inhibition [34] of under 50%. For the same molecule, the inhibition [35] was under 50%, the inhibition [36] was under 50% and the inhibition [37] was under 50%. It also gave an inhibition [38] of under 50%, an inhibition (Homo sapiens [39]) of under 50% and an inhibition [40] of under 50%. The EC50 [41] was 21 µM.
